The structures appear in SMILES notation.

Assay [1] has as its target Muscarinic acetylcholine receptors; M2 & M3 (Homo sapiens) (UniProt P20309+P08172). As to the kind of experiment: Selectivity index, […] for displacement of [3H]NMS from human recombinant muscarinic receptor M3 expressed in CHO cell membranes […] for displacement of [3H]NMS from human recombinant muscarinic receptor M2 expressed in CHO cell membranes. A general note: Loss of bound radioactivity is the signal in a displacement assay; it reports binding, not function.

The target in assay [2] is T1, Muscarinic acetylcholine receptor M4 (Homo sapiens, UniProt P08173).
T1 sequence (P08173 whole entry): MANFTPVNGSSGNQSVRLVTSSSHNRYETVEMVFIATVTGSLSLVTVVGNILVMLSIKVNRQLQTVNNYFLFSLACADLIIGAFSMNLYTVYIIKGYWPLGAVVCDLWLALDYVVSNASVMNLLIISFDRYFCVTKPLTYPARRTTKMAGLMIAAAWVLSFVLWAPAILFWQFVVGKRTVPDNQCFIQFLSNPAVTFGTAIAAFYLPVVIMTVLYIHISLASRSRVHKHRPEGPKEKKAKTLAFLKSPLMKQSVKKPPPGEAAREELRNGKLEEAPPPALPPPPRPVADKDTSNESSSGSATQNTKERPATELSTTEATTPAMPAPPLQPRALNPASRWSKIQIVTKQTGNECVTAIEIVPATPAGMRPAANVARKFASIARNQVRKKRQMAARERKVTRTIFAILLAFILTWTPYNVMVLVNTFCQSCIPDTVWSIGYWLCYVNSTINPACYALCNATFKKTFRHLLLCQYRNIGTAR
The experiment in a line: Displacement of [3H]-NMS from human muscarinic M4 receptor expressed in CHO cell membranes assessed as inhibition constant by radioligand competition analysis. Further details: species or system Cell membrane.

For assay [3], the target named is T2, Muscarinic acetylcholine receptor M5 (Homo sapiens, UniProt P08912).
T2 sequence (P08912 whole entry): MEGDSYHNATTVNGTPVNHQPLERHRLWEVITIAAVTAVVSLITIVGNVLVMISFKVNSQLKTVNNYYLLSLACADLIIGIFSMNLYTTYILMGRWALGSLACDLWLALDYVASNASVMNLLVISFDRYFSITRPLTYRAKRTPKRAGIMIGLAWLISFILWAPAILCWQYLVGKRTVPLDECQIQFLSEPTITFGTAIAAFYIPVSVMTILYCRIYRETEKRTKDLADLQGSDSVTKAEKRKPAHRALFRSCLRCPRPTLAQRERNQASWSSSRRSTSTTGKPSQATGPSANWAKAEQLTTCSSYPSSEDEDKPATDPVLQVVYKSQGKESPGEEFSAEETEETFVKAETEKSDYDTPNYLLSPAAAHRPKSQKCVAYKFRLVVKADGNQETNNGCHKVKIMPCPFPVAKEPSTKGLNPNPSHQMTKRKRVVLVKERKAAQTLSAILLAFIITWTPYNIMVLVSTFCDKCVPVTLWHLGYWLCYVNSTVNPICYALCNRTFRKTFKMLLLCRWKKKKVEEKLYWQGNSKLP
The experiment in a line: Displacement of [3H]-NMS from human muscarinic M5 receptor expressed in CHO cell membranes assessed as inhibition constant by radioligand competition analysis. Further details: species or system Cell membrane.

The target of assay [4] is Muscarinic acetylcholine receptor M2 and M5 (Homo sapiens) (UniProt P08172+P08912). The experiment in a line: Selectivity index, […] for displacement of [3H]NMS from human recombinant muscarinic receptor M5 expressed in CHO cell membranes […] for displacement of [3H]NMS from human recombinant muscarinic receptor M2 expressed in CHO cell membranes.
The target of assay [5] is Muscarinic acetylcholine receptor M3 (Homo sapiens, UniProt P20309). The experiment in a line: Displacement of [3H]-NMS from human muscarinic M3 receptor expressed in CHO cell membranes assessed as inhibition constant by radioligand competition analysis. Further details: species or system Cell membrane.
For assay [6], the target named is T3, Muscarinic acetylcholine receptor M1 (Homo sapiens, UniProt P11229).
T3 sequence (P11229 whole entry): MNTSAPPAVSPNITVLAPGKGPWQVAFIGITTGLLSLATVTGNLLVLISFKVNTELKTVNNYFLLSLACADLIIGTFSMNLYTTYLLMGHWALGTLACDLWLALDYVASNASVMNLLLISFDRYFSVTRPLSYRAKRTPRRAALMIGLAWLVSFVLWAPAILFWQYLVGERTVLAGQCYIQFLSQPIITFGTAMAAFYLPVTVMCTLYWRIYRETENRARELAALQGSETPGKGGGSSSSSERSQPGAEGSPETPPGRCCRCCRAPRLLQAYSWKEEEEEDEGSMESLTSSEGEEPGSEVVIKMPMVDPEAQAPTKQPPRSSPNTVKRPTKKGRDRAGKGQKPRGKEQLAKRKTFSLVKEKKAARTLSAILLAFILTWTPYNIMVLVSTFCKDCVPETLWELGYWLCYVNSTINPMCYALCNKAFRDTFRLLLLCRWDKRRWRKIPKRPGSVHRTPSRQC
As to the kind of experiment: Displacement of [3H]-NMS from human muscarinic M1 receptor expressed in CHO cell membranes assessed as inhibition constant by radioligand competition analysis. Also on record: species or system Cell membrane.

Assay [7] addresses T4, Muscarinic acetylcholine receptor M2 (Homo sapiens, UniProt P08172).
T4 sequence (P08172 whole entry): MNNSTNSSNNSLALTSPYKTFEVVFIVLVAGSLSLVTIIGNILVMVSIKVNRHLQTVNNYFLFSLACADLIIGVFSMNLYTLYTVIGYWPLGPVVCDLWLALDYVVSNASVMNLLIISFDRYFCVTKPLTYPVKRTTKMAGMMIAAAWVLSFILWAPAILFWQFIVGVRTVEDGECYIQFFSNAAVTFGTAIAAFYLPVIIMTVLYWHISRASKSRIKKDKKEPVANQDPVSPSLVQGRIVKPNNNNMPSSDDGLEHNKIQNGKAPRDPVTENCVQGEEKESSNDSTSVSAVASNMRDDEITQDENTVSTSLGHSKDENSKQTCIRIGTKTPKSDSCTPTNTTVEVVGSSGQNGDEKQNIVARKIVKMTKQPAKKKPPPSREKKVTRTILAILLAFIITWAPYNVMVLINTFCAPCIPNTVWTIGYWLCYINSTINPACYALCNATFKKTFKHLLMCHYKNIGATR
As to the kind of experiment: Displacement of [3H]-NMS from human muscarinic M2 receptor expressed in CHO cell membranes assessed as inhibition constant by radioligand competition analysis. Further details: species or system Cell membrane.

Chain of Muscarinic acetylcholine receptor M3 (P20309 whole entry): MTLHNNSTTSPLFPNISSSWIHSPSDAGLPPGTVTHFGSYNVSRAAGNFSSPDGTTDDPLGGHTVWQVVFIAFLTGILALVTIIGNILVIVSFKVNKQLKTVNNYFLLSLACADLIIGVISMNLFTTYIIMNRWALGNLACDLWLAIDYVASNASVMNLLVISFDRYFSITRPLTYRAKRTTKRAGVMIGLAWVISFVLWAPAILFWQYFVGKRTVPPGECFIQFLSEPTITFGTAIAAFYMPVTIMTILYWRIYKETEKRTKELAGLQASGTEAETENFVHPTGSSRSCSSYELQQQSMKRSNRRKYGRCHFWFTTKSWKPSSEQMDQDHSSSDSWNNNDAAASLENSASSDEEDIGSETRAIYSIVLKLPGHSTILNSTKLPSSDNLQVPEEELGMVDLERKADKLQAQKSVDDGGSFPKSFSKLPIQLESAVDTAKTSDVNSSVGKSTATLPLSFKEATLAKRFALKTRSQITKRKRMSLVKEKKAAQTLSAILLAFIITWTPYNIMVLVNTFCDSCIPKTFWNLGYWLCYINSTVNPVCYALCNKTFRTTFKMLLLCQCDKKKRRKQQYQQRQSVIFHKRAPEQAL

By Ki is commonly meant a measure of affinity in units of concentration, obtained from inhibition or displacement. Consider `CC(=O)N[C@@H](Cc1c[nH]c2ccccc12)C(=O)N[C@@H](C)C(=O)N[C@@H](Cc1ccc(O)cc1)C(=O)NCCCCC1CCN(CC(=O)N2c3ccccc3NC(=O)c3ccccc32)CC1`, for which the results for the Selectivity Index in assay [1] and in assay [4] were 56 and 6.2, respectively. Moreover, the Ki in assay [2] is 39.8 nM; in assay [3] it was 126 nM; in assay [5] it was 1260 nM; in assay [6] it was 100 nM.
Turning to `CCN(CC)CCCCC1CCN(CC(=O)N2c3ccccc3NC(=O)c3ccccc32)CC1`, in assay [1], the Selectivity Index is 37.
Take `NC1CCN(CCCCC2CCN(CC(=O)N3c4ccccc4NC(=O)c4ccccc43)CC2)CC1`: the Ki in assay [2] is 2.51 nM; in assay [7], 0.186 nM; in assay [6] it was 2.57 nM.
Turning to `CCCN[C@@H](CCCNC(=N)N)C(=O)N[C@@H](C)C(=O)N[C@@H](CCCCN)C(=O)NC(C)=O`, the Ki in assay [7] is 6170 nM.
With `NCCN1CCN(C(=O)CCCC2CCN(CC(=O)N3c4ccccc4NC(=O)c4ccccc43)CC2)CC1`, the values for the Ki in assay [2], in assay [7] and in assay [6] were 1510 nM, 155 nM and 724 nM, respectively.
Take `CC(=O)N[C@@H](CCCCN)C(=O)N[C@@H](CCCNC(=N)N)C(=O)NCCCCC1CCN(CC(=O)N2c3ccccc3NC(=O)c3ccccc32)CC1`: the figures for the Selectivity Index in assay [1] and in assay [4] were 6500 and 400, respectively. Moreover, the Ki in assay [2] is 63.1 nM; in assay [3], 316 nM; in assay [7] it was 1 nM; in assay [5], 6310 nM; in assay [6], 39.8 nM.
For the compound `N=C(N)NCCC[C@@H](N)C(=O)NCCN1CCN(CCCCC2CCN(CC(=O)N3c4ccccc4NC(=O)c4ccccc43)CC2)CC1`, the Ki is 1.82 nM in assay [2], 0.229 nM in assay [7] and 0.692 nM in assay [6].
With `CCC(=O)NCCNC(=O)CCc1cn(CCCCC2CCN(CC(=O)N3c4ccccc4NC(=O)c4ccccc43)CC2)cn1`, the Selectivity Index in assay [1] was found to be 79; in assay [4], 230. Moreover, the Ki is 2.51 nM in assay [2]; 158 nM in assay [3]; 0.794 nM in assay [7]; 63.1 nM in assay [5]; 7.94 nM in assay [6].
Turning to `CC(=O)N[C@@H](CCCCN)C(=O)N[C@@H](C)C(=O)N[C@@H](CCCNC(=N)N)C(=O)NCCN1CCN(CCCCC2CCN(CC(=O)N3c4ccccc4NC(=O)c4ccccc43)CC2)CC1`, the Selectivity Index was 1800 in assay [1] and 4900 in assay [4]. Besides, the Ki in assay [2] is 2 nM; in assay [3], 398 nM; in assay [7], 0.1 nM; in assay [5], 100 nM; in assay [6], 2.51 nM.
As for `NCC(=O)NC1CCN(CC(=O)N2c3ccccc3NC(=O)c3ccccc32)CC1`, the Ki is 1100 nM in assay [2], 1150 nM in assay [7] and 2950 nM in assay [6].
Consider `NCCN1CCN(CCC(=O)NC2CCN(CC(=O)N3c4ccccc4NC(=O)c4ccccc43)CC2)CC1`, for which the inhibition constant Ki was 363 nM in assay [2], 23.4 nM in assay [7] and 363 nM in assay [6].
`N=C(N)NCCC[C@@H](N)C(=O)NCCN1CCN(CCCC2CCN(CC(=O)N3c4ccccc4NC(=O)c4ccccc43)CC2)CC1`: the Selectivity Index was greater than 160 in assay [1] and 1300 in assay [4]. The Ki in assay [2] is 3.98 nM; in assay [3] it was 676 nM; in assay [7], 0.589 nM; in assay [5] it was 251 nM; in assay [6] it was 11.7 nM.
Turning to `CCCN[C@@H](CCCNC(=N)N)C(=O)N[C@@H](CCCCN)C(=O)NC(C)=O`, the Ki in assay [7] was 6460 nM.
`Nc1ccccc1C(=O)N1CCC(N2CCC(Cc3ccc(S(=O)(=O)c4cccc(Cl)c4)cc3)CC2)CC1`: the Ki was 91.2 nM in assay [2] and 324 nM in assay [6].
For the compound `NCCN1CCN(CCCC2CCN(CC(=O)N3c4ccccc4NC(=O)c4ccccc43)CC2)CC1`, the Ki in assay [2] was 18.6 nM; in assay [7] it was 3.55 nM; in assay [6] it was 44.7 nM.
For `NCCN1CCN(CC(=O)NC2CCN(CC(=O)N3c4ccccc4NC(=O)c4ccccc43)CC2)CC1`, in that order: 25700 nM, 2450 nM and 47900 nM.
In the case of `CCCN[C@@H](CCNC(=N)N)C(=O)N[C@@H](CCCCN)C(=O)NC(C)=O`, in assay [7], the Ki was 4470 nM.
As to `N=C(N)NCCC[C@H](N)C(=O)NCCN1CCN(CCCCC2CCN(CC(=O)N3c4ccccc4NC(=O)c4ccccc43)CC2)CC1`, the Ki in assay [2] is 0.794 nM; in assay [7], 0.102 nM; in assay [6] it was 1.35 nM.

The values are drawn from ChEMBL document CHEMBL4813954, “Dibenzodiazepinone-type muscarinic receptor antagonists conjugated to basic peptides: Impact of the linker moiety and unnatural amino acids on M2R selectivity” (Eur J Med Chem, 2021).
